The target of this test is T1, Human thrombin (Homo sapiens, UniProt P00734).
T1 construct: purchased Haematologic Technologies Inc
In words: Inhibition of the protease activity of thrombin (chromogenic substrate S-2238). It counts as biochemical. The settings on record: inhibition of the protease activity of thrombin.

Bounds are passed on as bounds.

With `COc1ccc(C(=O)n2nc(-c3ccccn3)nc2NCc2ccccc2)c(OC)c1` [Cmpd 235, N-benzyl-1-[(2,4-dimethoxyphenyl)carbonyl]-3-(pyridin-2-yl)-1H-1,2,4-triazol-5-amine], the 50% inhibitory concentration (IC50) is below 100 nM. The same measure for `COc1ccc(C(=O)n2nc(-c3ccccn3)cc2NCc2ccccc2)c(OC)c1` [Cmpd 236, N-benzyl-1-[(2,4-dimethoxyphenyl)carbonyl]-3-(pyridin-2-yl)-1H-pyrazol-5-amine]: 100 to 1000 nM; for `Cc1ccc(C(=O)n2nc(-c3ccccn3)nc2NCc2ccccc2)c(C)c1` [Cmpd 237, N-benzyl-1-[(2,4-dimethylphenyl)carbonyl]-3-(pyridin-2-yl)-1H-1,2,4-triazol-5-amine]: 100 to 1000 nM.

As for `O=C(c1c(Cl)cccc1Cl)n1nc(-c2ccccn2)nc1NCc1ccccc1` [Cmpd 238, N-benzyl-1-[(2,6-dichlorophenyl)carbonyl]-3-(pyridin-2-yl)-1H-1,2,4-triazol-5-amine], the IC50 was above 1000 nM. The same measure for `O=C(c1c(F)cccc1F)n1nc(-c2ccccn2)nc1NCc1ccccc1` [Cmpd 239, N-benzyl-1-[(2,6-difluorophenyl)carbonyl]-3-(pyridin-2-yl)-1H-1,2,4-triazol-5-amine]: 100 to 1000 nM; for `O=C(c1ccccc1Br)n1nc(-c2ccccn2)nc1NCc1ccccc1` [Cmpd 240, N-benzyl-1-[(2-bromophenyl)carbonyl]-3-(pyridin-2-yl)-1H-1,2,4-triazol-5-amine]: below 100 nM. `O=C(c1ccccc1Br)n1nc(-c2ccccn2)cc1NCc1ccccc1` [Cmpd 241, N-benzyl-1-[(2-bromophenyl)carbonyl]-3-(pyridin-2-yl)-1H-pyrazol-5-amine]: the 50% inhibitory concentration (IC50) is 100 to 1000 nM.

The compound `O=C(c1ccccc1Cl)n1nc(-c2ccccc2F)cc1NCc1ccccc1` [Cmpd 242, N-benzyl-1-[(2-chlorophenyl)carbonyl]-3-(2-fluorophenyl)-1H-pyrazol-5-amine] showed a half-maximal inhibitory concentration (IC50) of 100 to 1000 nM. Compound `O=C(c1ccccc1Cl)n1nc(-c2ccccn2)cc1NCc1ccccc1` [Cmpd 244, N-benzyl-1-[(2-chlorophenyl)carbonyl]-3-(pyridin-2-yl)-1H-pyrazol-5-amine] yielded an IC50 of 100 to 1000 nM. To `O=C(c1ccccc1Cl)n1nc(-c2ccncc2)nc1NCc1ccccc1` [Cmpd 245, N-benzyl-1-[(2-chlorophenyl)carbonyl]-3-(pyridin-4-yl)-1H-1,2,4-triazol-5-amine] belongs below 100 nM; to `CCc1ccccc1C(=O)n1nc(-c2ccccn2)nc1NCc1ccccc1` [Cmpd 246, N-benzyl-1-[(2-ethylphenyl)carbonyl]-3-(pyridin-2-yl)-1H-1,2,4-triazol-5-amine], 100 to 1000 nM. Take `CCc1ccccc1C(=O)n1nc(-c2ccccn2)cc1NCc1ccccc1` [Cmpd 247, N-benzyl-1-[(2-ethylphenyl)carbonyl]-3-(pyridin-2-yl)-1H-pyrazol-5-amine]: the IC50 was above 1000 nM. To `COc1ccc(C(=O)n2nc(-c3ccccn3)nc2NCc2ccccc2)c(F)c1` [Cmpd 248, N-benzyl-1-[(2-fluoro-4-methoxyphenyl)carbonyl]-3-(pyridin-2-yl)-1H-1,2,4-triazol-5-amine] belongs below 100 nM; to `Cc1ccc(C(=O)n2nc(-c3ccccn3)nc2NCc2ccccc2)c(F)c1` [Cmpd 249, N-benzyl-1-[(2-fluoro-4-methylphenyl)carbonyl]-3-(pyridin-2-yl)-1H-1,2,4-triazol-5-amine], below 100 nM; to `O=C(c1ccccc1F)n1nc(-c2ccccn2)cc1NCc1ccccc1` [Cmpd 251, N-benzyl-1-[(2-fluorophenyl)carbonyl]-3-(pyridin-2-yl)-1H-pyrazol-5-amine], below 100 nM.

Take `COc1cc(C)ccc1C(=O)n1nc(-c2ccccn2)nc1NCc1ccccc1` [Cmpd 253, N-benzyl-1-[(2-methoxy-4-methylphenyl)carbonyl]-3-(pyridin-2-yl)-1H-1,2,4-triazol-5-amine]: the IC50 is below 100 nM.

Values taken from patent publication US20170326125A1, “MULTISUBSTITUTED AROMATIC COMPOUNDS AS INHIBITORS OF THROMBIN” (VERSEON CORPORATION, priority 2016, published 2017).
